Data reported in a melting point compilation (Tetko et al.; mined from patent text by program, amines drawn as free bases though some values may be those of a salt).

melting point [°C] | SMILES
286 to 287 | CCCCc1sc(C(=O)O)c2c1-c1c(cnn1C)CC2
201 to 203 | CCOC(=O)C1C=Nc2c(c(F)cc3cc(C(=O)N(C)Cc4ccccc4)cnc23)C1=O (stereo not drawn)
143 to 145 | Cc1nc(Cc2ccccc2N)n[nH]1
180 to 182 | CS(=O)(=O)c1ccc(-c2ccc(Cl)n2-c2ccc(F)cc2)cc1
94 to 95 | C[C@H](C#Cc1sccc1COCc1ccc(F)cc1)N(O)C(N)=O
165 to 168 | O=C(O)c1cccc(CC2COc3cc(OCc4ccc5ccccc5n4)ccc3C2O)c1 (stereo not drawn)
156 to 158 | Cc1nc(Cn2nnnc2-c2cccc(Cl)c2Cl)cs1
148 to 150 | Cc1c(NCCCCNCC(O)COc2ccccc2)n(C)c(=O)n(C)c1=O (stereo not drawn)
134 to 137 | CC(Oc1cc(Oc2ccc(C(F)(F)F)cc2Cl)ccc1C#N)C(N)=O (stereo not drawn)
219 to 220 | CSc1ccc(NC(=O)Nc2cc(-c3c(-c4ccc(F)c(C)c4)nc4cccnn34)ccn2)cc1
222 to 226 | CC(=O)c1ccc(-c2cc(-c3nc4ccccc4c(=O)n3-c3ccc(Cl)cc3)sc2N2CCOCC2)cc1
> 300 | Cc1ccc(-c2csc(NC(=O)Nc3nc(-c4ccc(C)cc4)cs3)n2)cc1
154 | N#CC=Cc1ccc(C(=O)Cl)cc1
222 to 225 | COc1cc(-c2nc(NCCC(=O)O)c3c(C)c(C#N)sc3n2)cc(OC)c1OC
110 to 129 | COC(=O)c1ccc(Cc2cccc3ccc(CC(C)C(=O)O)cc23)c(OC)c1 (stereo not drawn)
165 to 167 | NC(=O)c1ccn(-c2ccc(Oc3ccccc3)cc2)n1
123 | O=[N+]([O-])c1cccc2c(Cl)c(Cl)cnc12
168 to 170 | CC(C)(S)CN1C(=O)NC(=O)C1=O
203 to 204 | CC1CC2C3CCC4=CC(=O)C=CC4(C)C3(F)C(O)CC2(C)C1(O)C(=O)COC(=O)OCc1ccccc1[N+](=O)[O-] (stereo not drawn)
170 to 172 | O=C(O)CNC(=O)c1nc2ccc(OCC(F)(F)C(F)(F)C(F)(F)C(F)F)cc2cc1O
80 to 82 | CN1CC(CCN2CCN(c3ccccc3F)CC2)OC1=O (stereo not drawn)
195 to 200 | Cc1cnc(C)n1CC(O)c1ccc(-c2ccc(N3C[C@H](Cn4ccnn4)OC3=O)cc2F)cn1 (stereo partly drawn)
236 to 237 | CC(C(=O)O)n1cc(-c2ccccc2)c(=O)c(-c2cccc(C(F)(F)F)c2)c1 (stereo not drawn)
212 to 213 | CCCCc1nc2c(N)nc3cccnc3c2n1CCCCN

melting point [°C] | SMILES
168 to 169 | CCCCc1nc(Cl)c(CO)n1Cc1ccc(-c2ccccc2-c2nnn(C(c3ccccc3)(c3ccccc3)c3ccccc3)n2)cc1
108 to 110 | CCC1(c2cccc(S(=O)(=O)c3ccc(C(C)(C)C)cc3)c2)COC(C)(C)O1 (stereo not drawn)
90 to 91 | O=C(CCSc1ccc2ccccc2c1)c1ccccc1
98 to 99 | CC(C)(C)C(=O)c1ccc(S(=O)(=O)C[N+](=O)[O-])s1
175 to 177 | Cc1cc(-c2ccco2)ccc1-c1cc(C(F)(F)F)nn1-c1ccc(S(C)(=O)=O)cc1
> 280 | CCn1c(=O)c2[nH]c(/C=C/c3ccc(C(F)(F)F)cc3)nc2n(CC)c1=O
> 260 | Cc1ccc(C)n1-c1ccc2ccc3[nH]c(=O)c(=O)n(CC(=O)Nc4ccccc4)c3c2c1
120 | CCOC(=O)c1cc2c([nH]1)c(N(C)S(=O)(=O)c1cccs1)cn2Cc1ccccc1
140 to 145 | O=c1[nH]c(-c2ccc(CCCCN3CCN(c4nsc5ccccc45)CC3)cc2)cs1
253 to 255 | Cc1cc2c(c(C(C)(C)C)c1)OC(=O)C2=C1C(=O)Oc2c1cc(C)cc2C(C)(C)C
267 to 268 | O=C(C=Cc1ccccc1)NNC(=O)C=Cc1ccccc1
154 | COC(=O)C1Cc2cc(OC)ccc2N1S(=O)(=O)c1ccc(I)cc1 (stereo not drawn)
113 to 115 | CC(=O)c1cc(S(=O)(=O)c2cccc(F)c2)ccc1OC[C@@H]1CO1
51 to 52 | CC(C)(C)OC(=O)NCCC(=O)c1c(Cl)cccc1[Si](C)(C)C
258 to 260 | O=c1[nH]c2cc(Cl)c(Cl)cc2[n+]([O-])c1-c1cccc(Oc2ccccc2)c1
168 to 170 | COc1cc(C(C)=NO)ccc1OCCCN1CCC(c2noc3cc(F)ccc23)CC1
208 to 210 | Cc1nc2c(N)nc3c(c2n1CCCCS(=O)(=O)C(C)(C)C)CCCC3
245 to 246 | COc1cc(OC)c2c(=O)cc(-c3nc4ccccc4[nH]3)oc2c1
246 to 248 | COc1cc(Nc2nc3c(ccc4c3ncn4CCN3CCOCC3)cc2C#N)c(C)cc1Cl
168 to 170 | CCCn1c(=O)c2nc(C(C)Cc3ccc(OCC(=O)O)cc3)[nH]c2n(CCC)c1=O (stereo not drawn)
55 to 56 | N#Cc1ccc(F)cc1-c1ccco1
230 | CC(C)Cc1nc2sc3c(NCc4cccnc4)ncnc3c2c2c1CCC(C)(C)C2
133 to 137 | Nc1nc2ccccc2c2c1ncn2CCCCCCCCNC(=O)c1ccccc1
67.5 to 68 | CN1CCN(c2cccc3ccc(OCc4cccc(Cl)c4)cc23)CC1

melting point [°C] | SMILES
177 to 179 | Cc1nc(N2CCN(Cc3ccc(F)cc3)C2=O)sc1C(=O)NCc1cccnc1
189 to 190 | COC(=O)C(=NO)c1nc2ccc(C)cc2oc1=O
133 to 134 | Oc1c2c(nn1-c1ccccn1)CCc1cc(-c3ccccc3)ccc1-2
120 to 121 | CC(OCc1ccc(Cl)c2ccccc12)(C(=O)O)C(F)(F)F (stereo not drawn)
128 to 130 | CC(=O)OC1CC2=CC=C3C4CCC(C(C)C=CC(C)C(C)C)C4(C)CCC3C2(C)C(OC(C)=O)C1 (stereo not drawn)
217 | CN(C)c1nc2sc3c(NCc4ccco4)ncnc3c2c2c1CC(C)(C)C2
105 to 106 | CCOC(=N)c1ccccc1-c1ccc(Cn2c(OCC)nc3cccc(C(=O)OC)c32)cc1
198 | O=S(=O)(Nc1ccc(Oc2cccc3cccnc23)c(Cl)c1)c1ccc(Cl)cc1
207 to 208 | COc1cc(OC)cc(-c2nc(C)nn2-c2ccc(S(N)(=O)=O)cc2)c1
173 to 175 | COc1cc(Nc2nccc(-c3cccc(NC(=O)c4cc(C)on4)c3)n2)cc(OC)c1OC
157 to 158 | CC(C)n1nc(-c2sc(C(=O)NC3CC3)nc2-c2ccc(F)cc2)ccc1=O
46 | CCOC(=O)C(C)c1ccc2nc(-c3ccccc3)oc2c1 (stereo not drawn)
211 to 212 | O=c1[nH]c(N2CCN(CCCCN3CCCCC3)CC2)cc2ccc(Br)cc12
51.5 to 53.2 | CC(C)(C)OC(=O)[C@H]1CCCN1
123 to 124 | Cc1cc(C)c(NC(=O)N(Cc2ccc3c(c2)-c2ccccc2-3)C2CCCCCC2)c(C)c1
195 to 196 | CCC(C)CCCC(C)C1CC(=O)C2(C(=O)O)C3=C(CCC12C)C1(C)CCC(O)CC1CC3 (stereo not drawn)
100 | CC(C)c1ccc(S(=O)(=O)n2c(CBr)cc3cc(C(F)(F)F)ccc32)cc1
67 to 70 | O=[N+]([O-])c1ccc(Oc2ccc(Cl)cc2)cc1
56 to 58 | Nc1ccnc(C(F)(F)F)c1
149 to 153 | CC(=O)Oc1c2cc(C(F)(F)F)c(C(F)(F)F)cc2c(OC(C)=O)c2cc3ccccc3cc12
162 | C[C@@H](O[Si](C)(C)C(C)(C)C)[C@H]1C(=O)N[C@@H]1[C@@H](C)C(=O)C(C)(C)O[Si](C)(C)C
67.6 to 68.8 | OCCCCCCCCCCCCCCCCN(CCO)CCO
220 to 224 | CC(C)n1nc(-c2nc(Br)c(N=S(C)C)nc2-c2ccccc2)ccc1=O
172 to 174 | CN1C(=O)CC[C@]2(C)c3ccc(Oc4ccc5ccccc5n4)cc3CC[C@@H]12

melting point [°C] | SMILES
107 | O=S(=O)(c1ccc(Cl)cc1)N1CCCC1c1ccc(C(F)(F)F)cc1 (racemic)
51.2 to 53.6 | CCc1nn2c(I)cccc2c1N(CC)CCF
190 to 191 | COc1ccc(Sc2cnc(NC(C)=O)s2)cc1
310 to 313 | CC(=O)N1CC(=O)C2=C(C1)CN1NC(N3CCOCC3)=NC1=N2
136 to 137 | CCc1ccc(C2(OC(C)=O)C(=O)c3ccccc3C2=O)c(OC(C)=O)c1
97 | CC(=O)n1cc(Cl)c(-c2cccc(Cl)c2Cl)c1
137 to 142 | CCC(=O)Oc1ccc(NC(=O)OC(C)(C)C)cc1C(=O)O
183 | CCOC(=O)C(F)(F)c1ccc(NC(=O)c2ccc3c(c2)C(C)(C)CCC3(C)C)cc1
> 300 | COc1ccc2c(c1)c(-c1cc3c(C(=O)O)ccnc3[nH]1)cn2C
149 to 153 | CCOCCOc1c(C)cc(Oc2ccc3c(c2)C=C(C(=O)O)CCS3(=O)=O)cc1C
> 300 | N#CC(N)c1c(Cl)cccc1Cl (stereo not drawn)
82 | O=C1c2cc(Cl)ccc2NCN1CCN1CCOCC1
68 to 69 | CC(C)CNS(=O)(=O)CCCCl
234 to 235 | CN(C)CCC1CCC2(CC1)Nc1ccc(Cl)cc1S(=O)(=O)N2 (stereo not drawn)
107 to 108 | Cc1c2c(c(C=O)c(C(C)C)c1OCc1ccccc1)OC(C)(C)C2
121 to 123 | NS(=O)(=O)c1ccccc1S(=O)(=O)N1CCC1
176 to 177 | CC1=CC(OC(=O)C=Cc2ccc(O)cc2)C(O)C(C)(C)CC1=O (stereo not drawn)
142 to 144 | N#Cc1c(N2CCCCC2)cc(-c2ccc3ccccc3c2)c2c1Cc1ccccc1-2
212 to 213 | NC(=O)NN=Cc1ccc(Oc2ccncc2)cc1
138 to 140 | CCCCc1cnc(SC)[nH]c1=O
61 to 62.2 | C=C(NC(C)=O)c1ccc(F)cn1
173 | CCCC(=O)Nc1cc(CNc2ccccc2C(=O)Nc2cc3ccccc3cn2)ccn1

SMILES | melting point [°C]
Cc1nnc2n1-c1ccccc1C(c1ccccc1Cl)=NC2 | 212 to 213
CC[C@@H]1N(c2ccc(C#N)c(C(F)(F)F)c2)C(=O)C[C@]1(C)O | 137 to 139
CN1C(=O)CN(C(=O)CN)C(c2ccccc2)c2cc(Cl)ccc21 (stereo not drawn) | 158 to 160
O=C(Cc1ccc(Cl)c(Cl)c1)N1CCCC(N2CCCC2)C1 (stereo not drawn) | 134 to 135
